Reference: PMC7076352 (Pharmaceutics, 2020)

Legend:
[1] = molecular target: T1, CYP2E1 (Rattus norvegicus, UniProt P05182); details: IC50 CYP2E1, single components; RLM 0.2 mg/mL, 15 min, triplicate, mean ± SD
Protocol: (§6) For the cocktail assay, the activity is expressed as the percentage of activity remaining comparing with that of a control sample containing no inhibitor. […] All the data were described as mean ± standard deviation (SD). Normality assumptions were tested by the Kolmogorov–Smirnov statistic setting p = 0.10 as the limit for rejection of the null hypothesis of normality. If the distribution of the data was normal with equal variances, a two-sided test was performed at the 5% level of significance. The Welch’s correction was then applied when the underlying variances were not equal. When the assumption of normality must be rejected, the Mann-Whitney test, a non-parametric equivalent of the independent-measures t-test, was used.

[2] = molecular target: T2, CYP1A2 (Rattus norvegicus, UniProt P04799); experiment: In vitro cocktail CYP450 activity assay in rat liver microsomes, CYP1A2 (phenacetin probe); details: for IC50: IC50 CYP1A2, single components, RLM 0.2 mg/mL, 15 min, triplicate, mean ± SD
T2 sequence (P04799 1-513): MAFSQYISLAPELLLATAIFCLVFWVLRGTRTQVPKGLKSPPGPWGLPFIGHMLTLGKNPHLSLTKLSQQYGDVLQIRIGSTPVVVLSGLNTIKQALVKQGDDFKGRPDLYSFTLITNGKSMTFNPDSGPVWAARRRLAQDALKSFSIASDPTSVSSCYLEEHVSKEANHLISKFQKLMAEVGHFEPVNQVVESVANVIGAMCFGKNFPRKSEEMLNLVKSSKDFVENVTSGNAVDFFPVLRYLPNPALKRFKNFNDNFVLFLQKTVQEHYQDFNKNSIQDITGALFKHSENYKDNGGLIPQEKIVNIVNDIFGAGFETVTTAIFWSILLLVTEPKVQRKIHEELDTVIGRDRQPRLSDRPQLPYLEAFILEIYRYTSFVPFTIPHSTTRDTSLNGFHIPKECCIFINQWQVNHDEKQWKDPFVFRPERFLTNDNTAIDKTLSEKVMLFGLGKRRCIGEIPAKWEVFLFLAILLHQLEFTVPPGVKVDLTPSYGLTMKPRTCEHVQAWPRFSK
Protocol: (§1) (OHBUP-[D6]) and 5 nM 4′-hydroxydiclofenac-[^13C6] (OHDIC-[^13C6]) as internal standards (ISs). […]
(§2) standard addition experiments. Each group included four concentration levels. For the PK […]
(§3) The probe compounds, viz. […]
(§4) chosen after incubating all the recruited substrates. In order to assure the linear relationship […]
(§5) The incubation system was also optimized in terms of substrate concentrations. The substrates concentrations of […]

[3] = in vivo; set-up: species or system Sprague-Dawley (SD) rats; details: Sprague-Dawley, plasma, rat; for concentration at […]: 0.083 h after oral CNP; for AUC(0-inf) / AUC(0-t) / Cmax / Tmax / half-life: 60 mg/kg
Protocol: At each time, 0.5 mL of blood was collected in the heparin sodium tubes. Plasma was separated by centrifugation at 4000 rpm for 10 min and stored below −80 °C until bioanalysis. Oasis PRiME HLB SPE cartridges (1 cc/30 mg, Waters, Milford, MA, USA) were used to process the plasma samples (Supplementary Materials).
The generic layout of instrumentation setup of the LVDI-UHPLC-MS/MS was conducted on a Shimadzu UHPLC system consisting of two LC-20ADXR pumps, a DGU-20A3R degasser, and a CBM-20A controller (Kyoto, Japan) with a SCIEX 4500 QTRAP mass spectrometer mounted with an electron spray ionization (ESI) interface as well as an electronic 6-port/2-channel valve (Foster City, CA, USA). Analyst software package (version 1.6.2, SCIEX) was implemented to control and synchronize the entire system, and also for data acquisition and processing. A single analytical run was fragmented into two phases, namely, loading and elution phases, by switching the electronic valve (Figure 2). At the loading phase, the valve was maintained at A-channel. The specimen aliquot of large volume delivered from the auto-sampler was captured onto a guard column. Meanwhile, the pumps were responsible for delivering the mobile phase at a high flow rate, aiming to dilute the sample solvent, thus facilitating the candidate constituents to concentrate on the pre-guard column. Then, the valve was automatically switched to the B-channel to trigger the elution phase. The trapped components were flushed from the pre-guard column into an analytical column, and underwent multiple reaction monitoring (MRM) analysis on the optimized LC gradients. The detailed information of LVDI-UHPLC-MS/MS analysis for pharmacokinetic and cocktail studies is shown in the Supplementary Materials section.

[4] = system: CYP2C19; experiment: In vitro cocktail CYP450 activity assay in rat liver microsomes, CYP2C19 (omeprazole probe); details: for IC50 at 15 min: Sprague-Dawley, rat, pooled rat liver microsomes, pH 7.4, probe omeprazole (1.07 µM, in seven-probe cocktail), IC50 CYP2C19, single components, RLM 0.2 mg/mL, triplicate, mean ± SD; for Response (% control) CYP2C19: at the Cmax level in rat plasma, calculated from the dose–response curve
Protocol: as §1, §2, §3, §4, §5

[5] = system: CYP2C9; experiment: In vitro cocktail CYP450 activity assay in rat liver microsomes, CYP2C9 (tolbutamide probe); details: for IC50 at 15 min: Sprague-Dawley, rat, pooled rat liver microsomes, pH 7.4, probe tolbutamide (18 µM, in seven-probe cocktail), IC50 CYP2C9, single components, RLM 0.2 mg/mL, triplicate, mean ± SD; for Response (% control) CYP2C9: at the Cmax level in rat plasma, calculated from the dose–response curve
Protocol: as §1, §2, §3, §4, §5

[6] = system: CYP2B6; experiment: In vitro cocktail CYP450 activity assay in rat liver microsomes, CYP2B6 (bupropion probe); details: for IC50 at 15 min: Sprague-Dawley, rat, pooled rat liver microsomes, pH 7.4, probe bupropion (90 µM, in seven-probe cocktail), IC50 CYP2B6, single components, RLM 0.2 mg/mL, triplicate, mean ± SD
Protocol: as §1, §2, §3, §4, §5

[7] = system: CYP3A4; experiment: in vitro; details: for IC50: Sprague-Dawley, rat, microsomes, pH 7.4, IC50 CYP3A4, single components, RLM 0.2 mg/mL, 15 min, triplicate, mean ± SD; for Response (% control) CYP3A4: at the Cmax level in rat plasma, calculated from the dose–response curve
Protocol: as §1, §2, §3, §4, §5

[8] = system: CYP2D6; experiment: in vitro; details: Sprague-Dawley, rat; for Response (% control) CYP2D6: 15 min, pH 7.4; for IC50 at 15 min: microsomes, pH 7.4, IC50 CYP2D6
Protocol: as §1, §2, §3, §4, §5

[9] = molecular target: T1, CYP2E1; details: Sprague-Dawley, rat, 15 min, pH 7.4
Protocol: as §6

[10] = at the Cmax level in rat plasma, calculated from the dose–response curve

T1 sequence (P05182 whole entry): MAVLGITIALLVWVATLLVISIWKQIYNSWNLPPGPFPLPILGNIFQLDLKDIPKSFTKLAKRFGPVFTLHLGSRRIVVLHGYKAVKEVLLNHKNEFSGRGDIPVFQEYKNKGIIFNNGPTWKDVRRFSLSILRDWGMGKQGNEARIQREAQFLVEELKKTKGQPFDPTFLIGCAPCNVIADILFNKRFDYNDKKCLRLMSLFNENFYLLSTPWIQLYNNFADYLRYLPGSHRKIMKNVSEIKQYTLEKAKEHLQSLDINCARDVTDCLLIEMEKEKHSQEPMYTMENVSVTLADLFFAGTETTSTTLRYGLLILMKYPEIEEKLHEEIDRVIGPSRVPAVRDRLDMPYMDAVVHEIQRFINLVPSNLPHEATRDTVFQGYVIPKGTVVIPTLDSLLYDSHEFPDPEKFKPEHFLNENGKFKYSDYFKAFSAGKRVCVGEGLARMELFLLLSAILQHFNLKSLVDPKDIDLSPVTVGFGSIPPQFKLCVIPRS

CC(C)=CCC[C@](C)(O[C@@H]1O[C@H](CO)[C@@H](O)[C@H](O)[C@H]1O)[C@H]1CC[C@]2(C)[C@@H]1[C@H](O)C[C@@H]1[C@@]3(C)CC[C@H](O)C(C)(C)[C@@H]3[C@@H](O[C@@H]3O[C@H](CO)[C@@H](O)[C@H](O)[C@H]3O)C[C@]12C [GRg1, ginsenoside Rg1]
IC50 [1]: 34.1 ± 4.76 µM | IC50 [2]: 13.1 ± 8.24 µM | Response (% control) CYP1A2 [2, 10]: 98.46 % control | concentration at […] [3]: 0.38 ± 0.15 ng/mL | concentration at 0.25 h ([3]; 0.25 h after oral CNP): 0.48 ± 0.07 ng/mL | concentration at 0.5 h ([3]; 0.5 h after oral CNP): 0.53 ± 0.37 ng/mL | concentration at 1 h ([3]; 1 h after oral CNP): 0.4 ± 0.23 ng/mL | concentration at 1.5 h ([3]; 1.5 h after oral CNP): 0.43 ± 0.32 ng/mL | concentration at 2 h ([3]; 2 h after oral CNP): 0.4 ± 0.14 ng/mL | concentration at 3 h ([3]; 3 h after oral CNP): 0.53 ± 0.4 ng/mL | concentration at 4 h ([3]; 4 h after oral CNP): 0.47 ± 0.13 ng/mL | concentration at 6 h ([3]; 6 h after oral CNP): 0.37 ± 0.17 ng/mL | concentration at 8 h ([3]; 8 h after oral CNP): 0.65 ± 0.2 ng/mL | concentration at 12 h ([3]; 12 h after oral CNP): 0.6 ± 0.36 ng/mL | concentration at 24 h ([3]; 24 h after oral CNP): 0.34 ± 0.12 ng/mL | concentration at 48 h ([3]; 48 h after oral CNP): 0.13 ± 0.04 ng/mL | AUC(0-inf) ([3]; po): 16.7 ± 3.93 ng·h/mL | AUC(0-t) ([3]; po): 14 ± 5.03 ng·h/mL | Cmax ([3]; po): 0.78 ± 0.13 ng/mL | Tmax ([3]; po): 4.71 ± 3.71 h | half-life ([3]; po): 11.7 ± 2.09 h | concentration at 0.25 h ([3]; po, 60 mg·kg^−1): 0.56 ± 0.15 ng/mL | concentration at 0.5 h ([3]; po, 60 mg·kg^−1): 0.37 ± 0.12 ng/mL | concentration at 1 h ([3]; po, 60 mg·kg^−1): 0.44 ± 0.19 ng/mL | concentration at 1.5 h ([3]; po, 60 mg·kg^−1): 0.33 ± 0.21 ng/mL | concentration at 2 h ([3]; po, 60 mg·kg^−1): 0.21 ± 0.05 ng/mL | concentration at 3 h ([3]; po, 60 mg·kg^−1): 0.49 ± 0.29 ng/mL | concentration at 4 h ([3]; po, 60 mg·kg^−1): 0.34 ± 0.32 ng/mL | concentration at 6 h ([3]; po, 60 mg·kg^−1): 0.37 ± 0.13 ng/mL | concentration at 8 h ([3]; po, 60 mg·kg^−1): 0.63 ± 0.14 ng/mL | concentration at 12 h ([3]; po, 60 mg·kg^−1): 0.59 ± 0.27 ng/mL | concentration at 24 h ([3]; po, 60 mg·kg^−1): 0.22 ± 0.13 ng/mL | concentration at 48 h ([3]; po, 60 mg·kg^−1): 0.09 ± 0.01 ng/mL | IC50 at 15 min [4]: 78.1 ± 5.25 µM | Response (% control) CYP2C19 [4]: 99.83 % control | IC50 at 15 min [5]: 36.5 ± 1.32 µM | Response (% control) CYP2C9 [5]: 96.27 % control | IC50 at 15 min [6]: 11 ± 0.87 µM | Response (% control) CYP2B6 [6, 10]: 98.23 % control | IC50 [7]: 39.2 ± 4.57 µM | Response (% control) CYP3A4 [7]: 97.76 % control | Response (% control) CYP2D6 [8]: 99.88 % control | IC50 at 15 min [8]: 55.7 ± 6.08 µM | Response (% control) CYP2E1 [9]: 99.57 % control

CC(C)=CCC[C@](C)(O[C@@H]1O[C@H](CO)[C@@H](O)[C@H](O)[C@H]1O)[C@H]1CC[C@]2(C)[C@@H]1[C@H](O)C[C@@H]1[C@@]3(C)CC[C@H](O)C(C)(C)[C@@H]3[C@@H](O[C@@H]3O[C@H](CO)[C@@H](O)[C@H](O)[C@H]3O[C@@H]3OC[C@@H](O)[C@H](O)[C@H]3O)C[C@]12C [NGR1, notoginsenoside R1]
IC50 [1]: 122 ± 8.96 µM | IC50 [2]: 112 ± 7.72 µM | concentration at […] [3]: 0.26 ± 0.06 ng/mL | concentration at 0.25 h ([3]; 0.25 h after oral CNP): 0.36 ± 0.05 ng/mL | concentration at 0.5 h ([3]; 0.5 h after oral CNP): 0.53 ± 0.29 ng/mL | concentration at 1 h ([3]; 1 h after oral CNP): 0.45 ± 0.19 ng/mL | concentration at 1.5 h ([3]; 1.5 h after oral CNP): 0.33 ± 0.12 ng/mL | concentration at 2 h ([3]; 2 h after oral CNP): 0.32 ± 0.05 ng/mL | concentration at 3 h ([3]; 3 h after oral CNP): 0.44 ± 0.15 ng/mL | concentration at 4 h ([3]; 4 h after oral CNP): 0.38 ± 0.12 ng/mL | concentration at 6 h ([3]; 6 h after oral CNP): 0.37 ± 0.17 ng/mL | concentration at 8 h ([3]; 8 h after oral CNP): 0.46 ± 0.15 ng/mL | concentration at 12 h ([3]; 12 h after oral CNP): 0.38 ± 0.18 ng/mL | concentration at 24 h ([3]; 24 h after oral CNP): 0.17 ± 0.06 ng/mL | AUC(0-inf) ([3]; po): 8.14 ± 3.6 ng·h/mL | AUC(0-t) ([3]; po): 6.3 ± 2.41 ng·h/mL | Cmax ([3]; po): 0.64 ± 0.18 ng/mL | Tmax ([3]; po): 1.15 ± 1.06 h | half-life ([3]; po): 10.5 ± 3.06 h | concentration at 0.25 h ([3]; po, 60 mg·kg^−1): 0.46 ± 0.18 ng/mL | concentration at 0.5 h ([3]; po, 60 mg·kg^−1): 0.5 ± 0.15 ng/mL | concentration at 1 h ([3]; po, 60 mg·kg^−1): 0.45 ± 0.14 ng/mL | concentration at 1.5 h ([3]; po, 60 mg·kg^−1): 0.28 ± 0.1 ng/mL | concentration at 2 h ([3]; po, 60 mg·kg^−1): 0.25 ± 0.11 ng/mL | concentration at 3 h ([3]; po, 60 mg·kg^−1): 0.46 ± 0.2 ng/mL | concentration at 4 h ([3]; po, 60 mg·kg^−1): 0.38 ± 0.26 ng/mL | concentration at 6 h ([3]; po, 60 mg·kg^−1): 0.25 ± 0.06 ng/mL | concentration at 8 h ([3]; po, 60 mg·kg^−1): 0.35 ± 0.06 ng/mL | concentration at 12 h ([3]; po, 60 mg·kg^−1): 0.35 ± 0.14 ng/mL | concentration at 24 h ([3]; po, 60 mg·kg^−1): 0.14 ± 0.04 ng/mL | IC50 at 15 min [4]: 108 ± 29.6 µM | Response (% control) CYP2C19 [4]: 92.32 % control | IC50 at 15 min [5]: 154 ± 16.6 µM | Response (% control) CYP2C9 [5]: 99.99 % control | IC50 at 15 min [6]: > 200 µM | IC50 [7]: 84.6 ± 1.79 µM | Response (% control) CYP3A4 [7]: 99.94 % control | Response (% control) CYP2D6 [8]: 92.76 % control | IC50 at 15 min [8]: 20.4 ± 3.45 µM | Response (% control) CYP2E1 [9]: 99.99 % control
